A short description of data set [1]: Pharmacokinetic screening in rats (plasma and brain). The settings on record: rat, 5 mg/kg PO; for concentration at 2 h: male, Sprague Dawley, po, 5 mg/kg, 2 hour time point; for Brain - 24 hours AUC (h * ng/g): 24 hour study.
Procedure: Pharmacokinetic screening in rats was performed on various compounds to measure brain to plasma ratio at 2 hour time point. […] The parameters for the pharmacokinetic protocol were as follows.
Amount of compound: 5 mg/kg
Species: Rat; Strain: Sprague Dawley; Sex: Male
Diet Status: Overnight fasting
Number of Animals (n) for each time point: 2
Formulation: 0.1% CMC, 0.25% Tween 80 in distilled water
Each formulation was administered once by oral gavage using a gavage needle (18G-3, BrainTree Scientific, INC, USA) attached to a syringe. The dose volume was 5 mL/kg for all animals. The actual volume administered to each animal was calculated and adjusted based on the most recent body weight.
Blood samples (approximately 300 μL whole blood) was collected from each animal via tail vein except for terminal blood samples. Terminal blood samples were collected via cardiac puncture. All samples were collected into tubes containing lithium heparin (Multivette 600 LH-Gel, Sarstedt, Newton, N.C., USA). Following collection, the tubes were placed in refrigerator (maximum 30 minutes) or until centrifugation under refrigeration (at 2 to 8° C.) at 5000 g for 7 minutes. Each harvested plasma sample was then transferred into 1.2 mL polypropylene tubes, on the 96-Well Plate according to the 96-Well Plate plasma sample map and kept in freezer. Plasma samples were then analyzed for test substances.
Brain samples were collected immediately after the rats were euthanised at designated time points. Brain samples were rinsed with saline, blotted dry, and weighed. Brain samples were placed into individual containers and kept in freezer (−20° C.). Brain samples were then analyzed for test articles.
After analysis, all the plasma results were reported as ng/mL and brain sample results are reported as ng/g.
The next data set concerns the target T1, human MC-4R (Homo sapiens, UniProt P32245).
T1 construct: expressed in transfected cells
The data set can be described thus: Biological Assay: inhibition of AgRP functional interaction with MC-4R in presence of αMSH (cAMP production). The format is cell-based. The settings on record: HEK293 cells expressing human MC-4R, AgRP83-132 and αMSH present; read-out: Average EC50 (nM) in Biological Assay. How it is done:
The following method is illustrative of techniques that may be employed to measure the ability of the compounds of Formula (I) to functionally modulate the binding of AgRP to melanocortin receptors. In particular, the assay below measures the ability of compounds of Formula (I) or pharmaceutically acceptable salts thereof to functionally modulate the binding of AgRP to MC-4R in the presence of a MC-4R agonist, such as alpha-MSH.
HEK293 cells stably expressing human MC-4R receptors were grown in high glucose Dulbecco's Modified Eagle Medium (DMEM) with 4500 mg glucose/L, L-glutamine, NaHCO3, pyrdoxin HCl, 10 mM HEPES (pH 7.4), 0.1 mM NEAA (non-essential amino acid medium) (GIBCO Cat#11140-050), 10% fetal bovine serum and 700 μg/mL G418. Cells were grown in T-225 flasks at 37° C. with CO2 and humidity control.
On the day of assay, cells were washed twice with phosphate buffered saline without calcium and magnesium (PBS) and incubated with 10 mL PBS until the cells were detached from the flask. The detached cells were centrifuged at 240 g for 5 min. The cell pellet was re-suspended in assay buffer (Earle's balanced salt solution (Sigma E3024) supplemented with 10 mM HEPES, pH 7.4, 0.5 mM IBMX and protease inhibitor cocktail (Roche, 1 complete tablet/75 mL buffer)).
The inhibitory or enhancement effect of compounds on AgRP activity was measured in a multi-component assay containing testing compounds, AgRP83-132 (human, Phoenix Pharma, cat no. 003-53), cells expressing MC-4R, and αMSH (Bachem, cat no. H-1075). Test compounds, AgRP and αMSH were diluted with assay buffer. Test compounds and AgRP were mixed to 4 times of the final concentration and incubated at room temperature for 30 min. Five μL of testing compound/AgRP solution followed with 10 μL of cells (20,000 cells/well) were added to each well of a 384-well reaction plate before 5 μL of αMSH was added. Cells were stimulated with αMSH for an additional 30 min at 37° C.
Stimulation of cells was stopped by adding a lysis buffer and cells were lysed. The intracellular concentration of cAMP may be measured by various techniques known to one of skill in the art including, but not limited to, fluorescence polarization (FP) and time-resolved fluorescence (TRF).
The inhibition was shown by an increase in MC-4R mediated cAMP production.
On the technique in general: Cyclic AMP is a second messenger, typically raised through Gs and lowered through Gi signalling.

[2] abbreviates: plasma, Plasma - 2 hours (ng/mL).

This note sets out measurements from patent publication US8563742B2, “Substituted aminothiazole derivatives, pharmaceutical compositions, and methods of use” (High Point Pharmaceuticals, LLC, priority 2008, dated 2013).

T1 sequence (P32245 whole entry): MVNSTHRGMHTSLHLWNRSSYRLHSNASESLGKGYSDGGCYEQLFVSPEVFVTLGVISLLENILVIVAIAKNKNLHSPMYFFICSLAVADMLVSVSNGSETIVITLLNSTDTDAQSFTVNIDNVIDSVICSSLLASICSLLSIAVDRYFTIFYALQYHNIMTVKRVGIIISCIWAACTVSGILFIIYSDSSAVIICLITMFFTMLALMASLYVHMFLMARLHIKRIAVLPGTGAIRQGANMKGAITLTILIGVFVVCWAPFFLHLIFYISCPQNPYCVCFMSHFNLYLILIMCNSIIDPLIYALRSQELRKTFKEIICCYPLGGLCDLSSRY

Consider `CCc1ccc(CN(CCC(=O)O)c2nc(C3CCCCC3)cs2)s1` [Example 2, 3-[(4-cyclohexyl-thiazol-2-yl)-(5-ethyl-thiophen-2-ylmethyl)-amino]-propionic acid], for which the concentration at 2 h in data set [1] (brain, Brain - 2 hours (ng/g)) was 80 ng/g; in data set [1] (setting [2]), 261 ng/mL. On human MC-4R, the EC50 (in general, the concentration at which the effect is half-maximal) was determined as 135 nM.
On the same counts, the results for `CCc1ccc(CN(CCC(=O)O)c2nc(CC3CCCCC3)cs2)s1` [Example 3, 3-[(4-Cyclohexylmethyl-thiazol-2-yl)-(5-ethyl-thiophen-2-ylmethyl)-amino]-propionic acid] are 691 ng/g, 2650 ng/mL and 246 nM.
With `CCc1ccc(CN(CCC(=O)O)c2nc(CC3CCCC3)cs2)s1` [Example 4, 3-[(4-Cyclopentylmethyl-thiazol-2-yl)-(5-ethyl-thiophen-2-ylmethyl)-amino]-propionic acid], the concentration at 2 h was found to be 98 ng/g in data set [1] (brain, Brain - 2 hours (ng/g)) and 590 ng/mL in data set [1] (setting [2]). Besides, the EC50 at human MC-4R is 324 nM.
Turning to `Cc1ccc(CN(CCC(=O)[O-])c2nc(C3(c4ccccc4)CCCCC3)cs2)s1.[Na+]` [Example 6, Sodium; 3-{(5-methyl-thiophen-2-ylmethyl)-[4-(1-phenyl-cyclohexyl)-thiazol-2-yl]-amino}-propionate], the concentration at 2 h in data set [1] (brain, Brain - 2 hours (ng/g)) came out at 248 ng/g; in data set [1] (setting [2]), 445 ng/mL. For the same compound, the “Brain - 24 hours AUC (h * ng/g)” value in data set [1] is recorded as “+ (values less than 5,000 h*ng/g)”. The EC50 at human MC-4R worked out at 250 nM.
Take `Cc1ccc(CN(CCC(=O)O)c2nc(C3(CC(C)C)CCCC3)cs2)s1` [Example 42, 3-[[4-(1-Isobutyl-cyclopentyl)-thiazol-2-yl]-(5-methyl-thiophen-2-ylmethyl)-amino]-propionic acid]: the concentration at 2 h in data set [1] (brain, Brain - 2 hours (ng/g)) was determined as 42 ng/g; in data set [1] (setting [2]), 50 ng/mL. For the same compound, the EC50 on human MC-4R was found to be 116 nM.
Take `CCC1(c2csc(N(CCC(=O)O)Cc3ccc(C)s3)n2)CCC(C)CC1` (stereo not drawn) [Example 45, Sodium; 3-[[4-(1-ethyl-4-methyl-cyclohexyl)-thiazol-2-yl]-(5-methyl-thiophen-2-ylmethyl)-amino]-propionate]: the EC50 at human MC-4R amounted to 159 nM.
Turning to `CCc1ccc(CN(CCC(=O)[O-])c2nc(C3(C)CCC(C)CC3)cs2)s1.[Na+]` (stereo not drawn) [Example 47, Sodium; 3-[[4-(1,4-dimethyl-cyclohexyl)-thiazol-2-yl]-(5-ethyl-thiophen-2-ylmethyl)-amino]-propionate], the concentration at 2 h in data set [1] (brain, Brain - 2 hours (ng/g)) amounted to 886 ng/g; in data set [1] (setting [2]) it was 2090 ng/mL. The “Brain - 24 hours AUC (h * ng/g)” value in data set [1] is listed as “+ (values less than 5,000 h*ng/g)”. Moreover, the EC50 on human MC-4R was determined as 58 nM.
As to `Cc1ccc(CN(CCC(=O)O)c2nc(C3(C)CCC(C(C)C)CC3)cs2)s1` (stereo not drawn) [Example 48, Sodium; 3-[[4-(4-isopropyl-1-methyl-cyclohexyl)-thiazol-2-yl]-(5-methyl-thiophen-2-ylmethyl)-amino]-propionate], the concentration at 2 h in data set [1] (brain, Brain - 2 hours (ng/g)) came out at 251 ng/g; in data set [1] (setting [2]), 486 ng/mL. The half-maximal effective concentration (EC50) at human MC-4R turned out to be 73 nM.
As to `CCc1ccc(CN(CCC(=O)O)c2nc(C3(C)CCC(C(C)C)CC3)cs2)s1` (stereo not drawn) [Example 49, Sodium; 3-{(5-ethyl-thiophen-2-ylmethyl)-[4-(4-isopropyl-1-methyl-cyclohexyl)-thiazol-2-yl]-amino}-propionate], the EC50 at human MC-4R came to 102 nM.
Same read-out and setting: the same measure for `Cc1ccc(CN(CCC(=O)O)c2nc(C3(C)CCC(C(C)(C)C)CC3)cs2)s1` (stereo not drawn) [Example 50, 3-[[4-(4-tert-Butyl-1-methyl-cyclohexyl)-thiazol-2-yl]-(5-methyl-thiophen-2-ylmethyl)-amino]-propionic acid]: 154 nM; for `Cc1ccc(CN(CCC(=O)O)c2nc(C3(C)CCC(c4ccccc4)CC3)cs2)s1` (stereo not drawn) [Example 51, 3-[[4-(1-Methyl-4-phenyl-cyclohexyl)-thiazol-2-yl]-(5-methyl-thiophen-2-ylmethyl)-amino]-propionic acid]: 143 nM.
On the same count and under the same terms, the same measure for `Cc1ccc(CN(CCC(=O)O)c2nc(C3(C)CCC(C)(C)CC3)cs2)s1` [Example 52, 3-[[4-(1,4,4-trimethyl-cyclohexyl)-thiazol-2-yl]-(5-methyl-thiophen-2-ylmethyl)-amino]-propionic acid]: 267 nM; for `Cc1ccc(CN(CCC(=O)O)c2nc(C3CC(C)(C)CC(C)(C)C3)cs2)s1` [Example 53, 3-{(5-methyl-thiophen-2-ylmethyl)-[4-(3,3,5,5-tetramethyl-cyclohexyl)-thiazol-2-yl]-amino}-propionic acid]: 307 nM.
For the compound `CCc1ccc(CN(CCC(=O)O)c2nc(C3CCC(C)(C)CC3)cs2)s1` [Example 54, 3-[[4-(4,4-Dimethyl-cyclohexyl)-thiazol-2-yl]-(5-ethyl-thiophen-2-ylmethyl)-amino]-propionic acid], the concentration at 2 h in data set [1] (brain, Brain - 2 hours (ng/g)) is 2980 ng/g; in data set [1] (setting [2]), 7710 ng/mL. In addition, the “Brain - 24 hours AUC (h * ng/g)” value in data set [1] is “++++ (values above 20,000 h*ng/g)”. The EC50 on human MC-4R worked out at 36 nM.
Turning to `Cc1ccc(CN(CCC(=O)O)c2nc(C3CCC(C)(C)CC3)c(C)s2)s1` [Example 56, Sodium; 3-[[4-(4,4-dimethyl-cyclohexyl)-5-methyl-thiazol-2-yl]-(5-methyl-thiophen-2-ylmethyl)-amino]-propionate], on human MC-4R, the EC50 was 217 nM.
Same read-out and setting: the same measure for `Cc1ccc(CN(CCC(=O)O)c2nc(C3CC4CCCCC4C3)cs2)s1` (stereo not drawn) [Example 57, 3-{(5-Methyl-thiophen-2-ylmethyl)-[4-(octahydro-inden-2-yl)-thiazol-2-yl]-amino}-propionic acid]: 187 nM.
On to `CCc1ccc(CN(CCC(=O)O)c2nc(C3CC4CCCCC4C3)cs2)s1` (stereo not drawn) [Example 58, 3-{(5-Ethyl-thiophen-2-ylmethyl)-[4-(octahydro-inden-2-yl)-thiazol-2-yl]-amino}-propionic acid], for which the concentration at 2 h is 720 ng/g in data set [1] (brain, Brain - 2 hours (ng/g)) and 1330 ng/mL in data set [1] (setting [2]). Moreover, the EC50 on human MC-4R came to 94 nM.
Regarding `Cc1cc(CN(CCC(=O)O)c2nc(C3CC4CCCCC4C3)cs2)c(C)s1` (stereo not drawn) [Example 59, 3-{(2,5-Dimethyl-thiophen-3-ylmethyl)-[4-(octahydro-inden-2-yl)-thiazol-2-yl]-amino}-propionic acid], the EC50 at human MC-4R is 160 nM.
On the same count and under the same terms, as for `Cc1ccc(CN(CCC(=O)O)c2nc(C3CCC4(CCCC4)CC3)cs2)s1` [Example 62, 3-[(5-methyl-thiophen-2-ylmethyl)-(4-spiro[4.5]dec-8-yl-thiazol-2-yl)-amino]-propionic acid], the figure is 321 nM; as for `Cc1ccc(CN(CCC(=O)O)c2nc(C3CCC4(CCCCC4)CC3)cs2)s1` [Example 63, 3-[(5-methyl-thiophen-2-ylmethyl)-(4-spiro[5.5]undec-3-yl-thiazol-2-yl)-amino]-propionic acid], 283 nM; as for `Cc1ccc(CN(CCC(=O)O)c2nc(CC3CCC(C)(C)CC3)cs2)s1` [Example 64, 3-[[4-(4,4-dimethyl-cyclohexylmethyl)-thiazol-2-yl]-(5-methyl-thiophen-2-ylmethyl)-amino]-propionic acid], 90 nM.
